According to patent US8795977B2, “Method for screening a potential modulator compound of a taste receptor” (Conopco, Inc., priority 2009, dated 2014):

Target: T1, T1R1/T1R3 umami receptor (Homo sapiens, UniProt Q7RTX0+Q7RTX1, C757R)
T1 construct: expressed in transfected cells; host or cells: HEK293 cells stably expressing Gα15, transiently transfected
T1 sequence (Q7RTX1 21-841): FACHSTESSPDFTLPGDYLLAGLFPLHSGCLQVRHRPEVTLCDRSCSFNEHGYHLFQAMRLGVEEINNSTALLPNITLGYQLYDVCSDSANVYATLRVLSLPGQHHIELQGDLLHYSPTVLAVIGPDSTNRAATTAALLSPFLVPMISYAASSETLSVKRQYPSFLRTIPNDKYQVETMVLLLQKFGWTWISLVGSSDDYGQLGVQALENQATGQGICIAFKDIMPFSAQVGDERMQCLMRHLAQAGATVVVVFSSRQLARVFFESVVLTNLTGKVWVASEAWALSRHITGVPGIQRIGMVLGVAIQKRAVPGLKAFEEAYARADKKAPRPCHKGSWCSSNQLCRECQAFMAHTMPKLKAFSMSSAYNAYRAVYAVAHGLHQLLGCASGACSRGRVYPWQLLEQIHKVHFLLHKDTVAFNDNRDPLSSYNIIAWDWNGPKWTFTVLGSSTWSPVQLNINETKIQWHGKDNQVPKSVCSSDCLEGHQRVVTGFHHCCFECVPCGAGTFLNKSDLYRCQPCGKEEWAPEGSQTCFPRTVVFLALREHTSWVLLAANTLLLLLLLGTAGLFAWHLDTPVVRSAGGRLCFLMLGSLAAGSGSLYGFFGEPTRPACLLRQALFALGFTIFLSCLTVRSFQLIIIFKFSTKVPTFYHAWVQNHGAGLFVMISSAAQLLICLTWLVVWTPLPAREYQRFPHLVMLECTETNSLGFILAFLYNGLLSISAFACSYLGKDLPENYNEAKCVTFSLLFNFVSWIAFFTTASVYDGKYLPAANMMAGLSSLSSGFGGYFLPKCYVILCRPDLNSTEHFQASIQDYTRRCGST
T1 sequence (Q7RTX0 21-852 C757R): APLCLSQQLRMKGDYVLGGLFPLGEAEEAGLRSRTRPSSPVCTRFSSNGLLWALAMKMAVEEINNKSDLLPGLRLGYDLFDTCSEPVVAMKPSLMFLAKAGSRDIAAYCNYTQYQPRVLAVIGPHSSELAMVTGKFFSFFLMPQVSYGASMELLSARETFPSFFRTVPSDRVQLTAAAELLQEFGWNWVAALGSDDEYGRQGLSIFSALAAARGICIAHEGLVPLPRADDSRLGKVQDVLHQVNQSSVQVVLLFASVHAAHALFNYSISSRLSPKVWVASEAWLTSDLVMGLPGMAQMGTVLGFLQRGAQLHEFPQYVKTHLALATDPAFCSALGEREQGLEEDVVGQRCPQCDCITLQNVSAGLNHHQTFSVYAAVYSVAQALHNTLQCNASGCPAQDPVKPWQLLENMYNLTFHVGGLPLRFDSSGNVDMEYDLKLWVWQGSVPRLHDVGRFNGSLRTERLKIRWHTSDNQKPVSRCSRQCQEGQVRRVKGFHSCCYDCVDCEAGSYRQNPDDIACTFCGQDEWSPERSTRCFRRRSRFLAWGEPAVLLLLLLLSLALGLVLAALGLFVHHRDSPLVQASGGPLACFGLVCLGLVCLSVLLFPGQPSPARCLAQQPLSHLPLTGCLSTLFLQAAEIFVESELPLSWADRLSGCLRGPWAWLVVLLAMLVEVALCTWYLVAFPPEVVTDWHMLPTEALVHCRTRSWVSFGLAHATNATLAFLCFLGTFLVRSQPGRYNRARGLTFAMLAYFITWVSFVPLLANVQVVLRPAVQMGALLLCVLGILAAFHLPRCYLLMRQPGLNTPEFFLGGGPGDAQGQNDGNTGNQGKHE
Experiment: Calcium-based receptor assay (release of intracellular calcium, Fluo-4-AM)
Format: cell-based
Design: key to T1R1/T1R3 receptor-specific signal, Calcium assay: +: For the calcium assay, cells expressing the umami receptor and Gα15 are compared with cells expressing Gα15 only; the difference between these signals is defined as umami receptor-specific signal; −: it was not possible to achieve umami receptor-specific signals using representative extracts and other complex mixtures using the calcium-based receptor assay
Settings: for release of intracellular calcium, T1R1/T1R3 umami receptor, average / release of intracellular calcium, T1R1/T1R3 umami receptor, meas. 1 / release of intracellular calcium, T1R1/T1R3 umami receptor, meas. 2: change in fluorescence (ΔF)
Procedure: FIG. 1 Activation of the T1R1/T1R3 umami receptor expressed in HEK293-Gα15 cells as measured by monitoring the release of intracellular calcium using the calcium fluorescent marker Fluo-4-AM as described in Example 2. Activity of the umami receptor was measured as the change in fluorescence which was calculated by subtracting the […]. Test solutions comprise extracts as indicated and prepared as described in Example 2. […]
We developed a unique functional umami receptor assay to evaluate and quantify umami in tomato and other crude plant or food extracts using the BRET technique: to test the principle we used the donor and acceptor proteins relating to BRET-2. In short, the human T1R1 and T1R3 taste receptors were cloned and fused with Renilla luciferase (Rluc) as donor protein; green fluorescent protein-2 (GFP2) served as acceptor protein and was fused to β-arrestin-2. Both constructs were transfected into a HEK293 cell line cells) for heterologous expression of the proteins. Various mammalian cell lines have been reported to be highly suitable for expression of receptors or other proteins, with HEK293 (human embryonic kidney) cells and CHO (Chinese hamster ovary) cells being some of the most versatile and suitable ones^12. Similarly, GPCRs can be expressed in various ways as described in multiple publications, such as transient^6, 8, 13-15 or stable (constitutive or inducible)^6, 9, 16, 17 expression, depending on the nature of the experiment, the respective receptor or the available time. Upon receptor stimulation with an agonist or crude extracts, the β-arrestin-2/GFP-2 protein interacts with the activated receptor thus bringing GFP-2 in close proximity with luciferase, making energy transfer between these two proteins possible and generating a BRET signal. In the presence of oxygen the luciferase catalyses the transformation of the substrate DeepBlueC into coelenteramide, which can be measured at 395-410 nm. If GFP-2 is in close proximity to the luciferase and energy transfer takes place, the emission will shift to 510 nm; this is referred to as the BRET signal and is expressed as ratio between the acceptor (GFP-2) and the donor (Renilla luciferase). The following experiments are designed to illustrate that conventional calcium-based functional receptor assays are not suitable for measuring the effects of crude extracts; in contrast, the BRET assay (as indicated here with umami) can clearly measure specific receptor responses using crude natural extracts. Moreover, the assay is also sensitive enough for detecting differences of receptor activation between the different tomato samples. Materials & Methods: Chemicals and Media: Fluo-4 AM was from Molecular Probes (# F-14202, prepared as 5 mM stock in DMSO), DMEM (with 4.5 g/l glucose and ultraglutamine, # BE12-604F) was from Lonza, trypsin-EDTA, Lipofectamine 2000, OptiMem and FCS were obtained from Life Technologies Invitrogen. Monosodium glutamate (MSG), Inosine 5′-monophosphate as well as all other chemicals were from Sigma-Aldrich. The plasmid encoding GFP2-β-arrestin-2 was purchased from BioSignal Packard (#6310176). Coelenterazine 400A (a DeepBlueC derivative) and Coelenterazine-H were from VWR International (# BTIU10125-1 and 233903-50, respectively). All other cell culture supplies were from Greiner BioOne. Receptor Fusion Constructs, Cell Lines, and Media: The human T1R1 and human T1R3 umami receptors were fused at their C-terminal in frame to Renilla Luciferase (Rluc) using standard molecular cloning techniques and the codon-humanized pRluc-N3 vector from PerkinElmer (#6310220). For expression of the umami receptors and the construct encoding GFP-2/β-arrestin-2, HEK293 cells (human embryonic kidney cells, ATCC) were used using traditional transfection methods (see also below). HEK293 cells were maintained in DMEM and 10% FBS at 37° C./5% CO2. […]

**Q.** What does the source list for `N[C@@H](CCC(=O)O)C(=O)[O-].[Na+]` [MSG, Monosodium glutamate]?
**A.** release of intracellular calcium, T1R1/T1R3 umami receptor, average (100 μM MSG): 1170; release of intracellular calcium, T1R1/T1R3 umami receptor, meas. 1 (100 μM MSG): 1146; release of intracellular calcium, T1R1/T1R3 umami receptor, meas. 2 (100 μM MSG): 1193; release of intracellular calcium, T1R1/T1R3 umami receptor, average (1 mM MSG): 3269; release of intracellular calcium, T1R1/T1R3 umami receptor, meas. 1 (1 mM MSG): 2548; release of intracellular calcium, T1R1/T1R3 umami receptor, meas. 2 (1 mM MSG): 3990; release of intracellular calcium, T1R1/T1R3 umami receptor, average (10 mM MSG): 6749; release of intracellular calcium, T1R1/T1R3 umami receptor, meas. 1 (10 mM MSG): 5766; release of intracellular calcium, T1R1/T1R3 umami receptor, meas. 2 (10 mM MSG): 7732; T1R1/T1R3 receptor-specific signal, Calcium assay (MSG 10 mM): +; umami receptor-specific response in the calcium-based receptor assay (in words) (receptor-expressing versus control cells): umami receptor-specific responses
